Experimental data from patent publication US20070020713A1, “Antibodies to the fuel oxygenate mtbe and use thereof in immunoassays” (priority 2003, published 2007).
Where a name gives a salt, the structure may show the parent alone.

System: anti-MTBE antibody prepared in Example 1 (anti-MTBE/7-methoxy-3,7-dimethyloctanal antibody)
Assay: Anti-MTBE monoclonal antibody cross-reactivity, indirect competitive ELISA
Type: binding
Conditions: for IC50 (concentration of analyte required to inhibit the maximum assay signal B0 by 50%): B/B0=50%, read from FIG. 4

Row | Structure (SMILES) | IC50 (concentration of analyte required to inhibit the maximum assay signal B0 by 50%) | cross-reactivity of the antibody (FIG. 4)
1 | COC(C)(C)C [MTBE, methyl tert-butyl ether] | ~10 mg/L | 
2 | CCC(C)(C)OC [TAME, methyl tert-amyl ether] | ~10 mg/L | 
3 | CC(C)(C)O [TBA, tert-butyl alcohol] | ~180 mg/L | 
4 | CC(C)(C)OC=O [TBF, tert-butyl formate] | ~60 mg/L | 
5 | CO [methanol] |  | no significant cross-reactivity
